Laboratory results taken from paper PMC5218480 (PLoS ONE, 2017).

Test system: MV-4-11 cells
Test: Gene expression microarray analysis (Affymetrix PrimeView) and GSEA
Type: cell-based, human
Parameters: RFU PODN (11730768_x_at) / Fold change /veh PODN (11730768_x_at) / RFU LINC00158 (11744669_a_at) / Fold change /veh LINC00158 (11744669_a_at) / RFU DUSP10 (11751237_a_at) / Fold change /veh DUSP10 (11751237_a_at) / RFU ID3 (11757404_x_at) / Fold change /veh ID3 (11757404_x_at) / RFU PLEKHG5 (11737974_s_at) / Fold change /veh PLEKHG5 (11737974_s_at) / RFU LRRC4B (11730491_at) / Fold change /veh LRRC4B (11730491_at) / RFU GIMAP4 (11747438_a_at) / Fold change /veh GIMAP4 (11747438_a_at) / RFU KRT8 (11758183_x_at) / Fold change /veh KRT8 (11758183_x_at) / RFU CNN1 (11734310_a_at) / Fold change /veh CNN1 (11734310_a_at) / RFU VPS37D (11726825_at) / Fold change /veh VPS37D (11726825_at) / RFU C10orf10 (11716522_x_at) / Fold change /veh C10orf10 (11716522_x_at) / RFU KIR2DL2 /// KIR2DL4 /// KIR2DL5A /// KIR2DL5B /// KIR2DS1 /// KIR2DS2 /// KIR2DS3 /// KIR2DS4 /// KIR3DL3 /// KIR3DL3 /// KIR3DS1 (11738374_at) / Fold change /veh KIR2DL2 /// KIR2DL4 /// KIR2DL5A /// KIR2DL5B /// KIR2DS1 /// KIR2DS2 /// KIR2DS3 /// KIR2DS4 /// KIR3DL3 /// KIR3DL3 /// KIR3DS1 (11738374_at) / RFU C1QL1 (11718748_at) / Fold change /veh C1QL1 (11718748_at) / RFU TMPRSS4 (11747572_a_at) / Fold change /veh TMPRSS4 (11747572_a_at) / RFU HAMP (11756126_x_at) / Fold change /veh HAMP (11756126_x_at) / RFU RNFT2 (11725882_a_at) / Fold change /veh RNFT2 (11725882_a_at) / RFU NR4A2 (11747474_a_at) / Fold change /veh NR4A2 (11747474_a_at) / RFU ABCC12 (11746883_a_at) / Fold change /veh ABCC12 (11746883_a_at) / RFU TMEM136 (11760407_x_at) / Fold change /veh TMEM136 (11760407_x_at) / RFU CLDN22 /// WWC2 (11732394_at) / Fold change /veh CLDN22 /// WWC2 (11732394_at) / RFU HLA-DPB1 (11760878_x_at) / Fold change /veh HLA-DPB1 (11760878_x_at) / RFU SPINT1 (11716480_a_at) / Fold change /veh SPINT1 (11716480_a_at) / RFU GAP43 (11754022_s_at) / Fold change /veh GAP43 (11754022_s_at) / RFU A4GNT (11735810_at) / Fold change /veh A4GNT (11735810_at) / RFU PRB3 (11715151_x_at) / Fold change /veh PRB3 (11715151_x_at) / RFU TUBB4B (11761932_at) / Fold change /veh TUBB4B (11761932_at) / RFU CAPN14 (11732068_a_at) / Fold change /veh CAPN14 (11732068_a_at) / RFU TMCC2 (11721928_a_at) / Fold change /veh TMCC2 (11721928_a_at) / RFU IRGQ (11745062_a_at) / Fold change /veh IRGQ (11745062_a_at) / RFU FAM174B (11720279_a_at) / Fold change /veh FAM174B (11720279_a_at) / RFU TMPRSS4 (11748680_a_at) / Fold change /veh TMPRSS4 (11748680_a_at) / RFU FAM212B (11763350_a_at) / Fold change /veh FAM212B (11763350_a_at) / RFU PLEKHG5 (11743358_a_at) / Fold change /veh PLEKHG5 (11743358_a_at) / RFU ZSCAN30 (11745921_a_at) / Fold change /veh ZSCAN30 (11745921_a_at) / RFU CMKLR1 (11741424_a_at) / Fold change /veh CMKLR1 (11741424_a_at) / RFU LOC101060620 /// MAPK8IP1 (11723275_at) / Fold change /veh LOC101060620 /// MAPK8IP1 (11723275_at) / RFU SPTSSB (11747773_x_at) / Fold change /veh SPTSSB (11747773_x_at) / RFU PRSS12 (11739890_at) / Fold change /veh PRSS12 (11739890_at) / RFU BIN1 (11741810_x_at) / Fold change /veh BIN1 (11741810_x_at) / RFU WNT11 (11732464_a_at) / Fold change /veh WNT11 (11732464_a_at) / RFU C10orf10 (11716521_a_at) / Fold change /veh C10orf10 (11716521_a_at) / RFU C5orf56 (11738089_at) / Fold change /veh C5orf56 (11738089_at) / RFU CYB561 (11721691_x_at) / Fold change /veh CYB561 (11721691_x_at) / RFU ANKRD19P (11752326_a_at) / Fold change /veh ANKRD19P (11752326_a_at) / RFU OR2T12 /// OR2T33 /// OR2T8 (11738714_s_at) / Fold change /veh OR2T12 /// OR2T33 /// OR2T8 (11738714_s_at) / RFU VCAN (11748164_a_at) / Fold change /veh VCAN (11748164_a_at) / RFU JSRP1 (11732532_at) / Fold change /veh JSRP1 (11732532_at) / RFU KRTAP10-11 (11738290_x_at) / Fold change /veh KRTAP10-11 (11738290_x_at) / RFU MYO3A (11730013_a_at) / Fold change /veh MYO3A (11730013_a_at) / RFU EBF3 (11725865_a_at) / Fold change /veh EBF3 (11725865_a_at) / RFU CAMK2N1 (11719241_x_at) / Fold change /veh CAMK2N1 (11719241_x_at) / RFU C5orf56 (11738088_a_at) / Fold change /veh C5orf56 (11738088_a_at) / RFU OLFML3 (11715873_a_at) / Fold change /veh OLFML3 (11715873_a_at) / RFU LOC100653217 /// NTM (11731650_a_at) / Fold change /veh LOC100653217 /// NTM (11731650_a_at) / RFU MAPK11 (11762145_a_at) / Fold change /veh MAPK11 (11762145_a_at) / RFU FIZ1 (11724087_x_at) / Fold change /veh FIZ1 (11724087_x_at) / RFU OASL (11726364_x_at) / Fold change /veh OASL (11726364_x_at) / RFU SOX15 (11748057_x_at) / Fold change /veh SOX15 (11748057_x_at) / RFU CD79A (11719716_a_at) / Fold change /veh CD79A (11719716_a_at) / RFU HIST1H1D (11736915_at) / Fold change /veh HIST1H1D (11736915_at) / RFU CASKIN2 (11723855_a_at) / Fold change /veh CASKIN2 (11723855_a_at) / RFU LOC730098 (11760151_x_at) / Fold change /veh LOC730098 (11760151_x_at) / RFU OR4N2 (11742367_at) / Fold change /veh OR4N2 (11742367_at) / RFU PRRT2 (11749266_a_at) / Fold change /veh PRRT2 (11749266_a_at) / RFU SNX32 (11753110_a_at) / Fold change /veh SNX32 (11753110_a_at) / RFU CDHR5 (11726645_a_at) / Fold change /veh CDHR5 (11726645_a_at) / RFU RCAN1 (11760418_a_at) / Fold change /veh RCAN1 (11760418_a_at) / RFU FAM167A (11723789_a_at) / Fold change /veh FAM167A (11723789_a_at) / RFU FAM26E (11764081_at) / Fold change /veh FAM26E (11764081_at) / RFU ISYNA1 (11749810_s_at) / Fold change /veh ISYNA1 (11749810_s_at) / RFU ACY1 (11761880_at) / Fold change /veh ACY1 (11761880_at) / RFU 11764098_at / Fold change /veh 11764098_at / RFU SAMD14 (11745864_x_at) / Fold change /veh SAMD14 (11745864_x_at) / RFU NPB (11741838_a_at) / Fold change /veh NPB (11741838_a_at) / RFU TMPRSS6 (11731388_a_at) / Fold change /veh TMPRSS6 (11731388_a_at) / RFU KRTAP10-2 (11738614_at) / Fold change /veh KRTAP10-2 (11738614_at) / RFU ARHGAP8 /// PRR5-ARHGAP8 (11727945_x_at) / Fold change /veh ARHGAP8 /// PRR5-ARHGAP8 (11727945_x_at) / RFU KRTAP5-7 /// NADSYN1 (11734609_at) / Fold change /veh KRTAP5-7 /// NADSYN1 (11734609_at) / RFU RASL12 (11751679_a_at) / Fold change /veh RASL12 (11751679_a_at) / RFU CDKN2B (11736163_a_at) / Fold change /veh CDKN2B (11736163_a_at) / RFU PRF1 (11729649_at) / Fold change /veh PRF1 (11729649_at) / RFU, ZNF638 /// ZNF638-IT1 / Fold change vs veh, ZNF638 /// ZNF638-IT1 / RFU, PANK3 / Fold change vs veh, PANK3 / RFU, SH3YL1 / Fold change vs veh, SH3YL1 / RFU, ZEB2 / Fold change vs veh, ZEB2 / RFU, NRIP1 / Fold change vs veh, NRIP1 / RFU, PTTG1IP / Fold change vs veh, PTTG1IP / RFU, CAPN2 / Fold change vs veh, CAPN2 / RFU, MED14 / Fold change vs veh, MED14 / RFU, SNORA58 / Fold change vs veh, SNORA58 / RFU, C1orf63 / Fold change vs veh, C1orf63 / RFU, LRRFIP1 / Fold change vs veh, LRRFIP1 / RFU, NDUFAF7 / Fold change vs veh, NDUFAF7 / RFU, SLC12A2 / Fold change vs veh, SLC12A2 / RFU, IBTK / Fold change vs veh, IBTK / RFU, ESF1 / Fold change vs veh, ESF1 / Fold change vs veh, TMEM50B / RFU, TAOK1 / Fold change vs veh, TAOK1 / RFU, ACBD3 / Fold change vs veh, ACBD3 / RFU, TMA16 / Fold change vs veh, TMA16 / RFU, RWDD3 / Fold change vs veh, RWDD3 / RFU, BCAT1 / Fold change vs veh, BCAT1 / RFU, EDEM3 / Fold change vs veh, EDEM3 / RFU, TMEM33 / Fold change vs veh, TMEM33 / RFU, WDR75 / Fold change vs veh, WDR75 / RFU, AHCTF1 / Fold change vs veh, AHCTF1 / RFU, TFRC / Fold change vs veh, TFRC / RFU, ZDHHC17 / Fold change vs veh, ZDHHC17 / RFU, NOM1 / Fold change vs veh, NOM1 / RFU, ARL8B / Fold change vs veh, ARL8B / RFU, ZBTB11 / Fold change vs veh, ZBTB11 / RFU, TAMM41 / Fold change vs veh, TAMM41 / RFU, KIAA1704 /// LOC100996395 / Fold change vs veh, KIAA1704 /// LOC100996395 / RFU, ING1 / Fold change vs veh, ING1 / RFU, TRMT61B / Fold change vs veh, TRMT61B / RFU, FUBP3 / Fold change vs veh, FUBP3 / RFU, TP53 / Fold change vs veh, TP53 / RFU, TNKS2 / Fold change vs veh, TNKS2 / RFU, ZFP14 / Fold change vs veh, ZFP14 / RFU, ACTR2 / Fold change vs veh, ACTR2 / RFU, PPP3R1 / Fold change vs veh, PPP3R1 / RFU, PIK3R1 / Fold change vs veh, PIK3R1 / RFU, HNRNPA1 / Fold change vs veh, HNRNPA1 / RFU, RNF170 / Fold change vs veh, RNF170 / RFU, ZNF28 / Fold change vs veh, ZNF28 / RFU, RNGTT / Fold change vs veh, RNGTT / RFU, OGT / Fold change vs veh, OGT / RFU, BRD1 / Fold change vs veh, BRD1 / RFU, MARS / Fold change vs veh, MARS / RFU, ZNF655 / Fold change vs veh, ZNF655 / RFU, FAHD1 / Fold change vs veh, FAHD1 / RFU, BDP1 / Fold change vs veh, BDP1 / RFU, LRRCC1 / Fold change vs veh, LRRCC1 / RFU, ARID1A / Fold change vs veh, ARID1A / RFU, ZNF146 / Fold change vs veh, ZNF146 / RFU, ZNF330 / Fold change vs veh, ZNF330 / RFU, GPN3 / Fold change vs veh, GPN3 / RFU, C9orf123 / Fold change vs veh, C9orf123 / RFU, N4BP2L2 / Fold change vs veh, N4BP2L2 / RFU, ARFIP1 / Fold change vs veh, ARFIP1 / RFU, FAM179B / Fold change vs veh, FAM179B / RFU, BCL10 / Fold change vs veh, BCL10 / RFU, UHRF1BP1L / Fold change vs veh, UHRF1BP1L / RFU, BET1 / Fold change vs veh, BET1 / RFU, CNOT2 / Fold change vs veh, CNOT2 / RFU, ZNF268 / Fold change vs veh, ZNF268 / Fold change vs veh, ZNF507 / RFU, DGCR2 / Fold change vs veh, DGCR2 / RFU, WDSUB1 / Fold change vs veh, WDSUB1 / Fold change vs veh, HSP90B1 /// MIR3652 / RFU, ADSS / Fold change vs veh, ADSS / RFU, GK / Fold change vs veh, GK / RFU, ZNF148 / Fold change vs veh, ZNF148 / RFU, TAF9 / Fold change vs veh, TAF9 / RFU, SLC1A5 / Fold change vs veh, SLC1A5 / RFU, SLMO2 / Fold change vs veh, SLMO2 / RFU, ABCC4 / Fold change vs veh, ABCC4 / RFU, LOC101060439 /// RAP1B / Fold change vs veh, LOC101060439 /// RAP1B / RFU, RFX7 / Fold change vs veh, RFX7 / RFU, GTPBP10 / Fold change vs veh, GTPBP10 / RFU, CNEP1R1 / Fold change vs veh, CNEP1R1 / RFU, BIVM-ERCC5 /// ERCC5 / Fold change vs veh, BIVM-ERCC5 /// ERCC5 / RFU, ILF3 / Fold change vs veh, ILF3 / RFU 11762660_at / Fold change /veh 11762660_at / RFU VCAN (11757783_s_at) / Fold change /veh VCAN (11757783_s_at) / RFU DDX43 (11728927_at) / Fold change /veh DDX43 (11728927_at) / RFU KRT8 (11758188_x_at) / Fold change /veh KRT8 (11758188_x_at) / RFU NKD1 (11759106_at) / Fold change /veh NKD1 (11759106_at) / RFU SRD5A1 (11742802_a_at) / Fold change /veh SRD5A1 (11742802_a_at) / RFU TPSAB1 /// TPSB2 (11721975_s_at) / Fold change /veh TPSAB1 /// TPSB2 (11721975_s_at) / RFU GSTM3 (11746129_a_at) / Fold change /veh GSTM3 (11746129_a_at) / RFU IL23R (11737362_x_at) / Fold change /veh IL23R (11737362_x_at) / RFU TMEM51 (11727254_a_at) / Fold change /veh TMEM51 (11727254_a_at) / RFU PIWIL2 (11732686_x_at) / Fold change /veh PIWIL2 (11732686_x_at) / RFU ORM1 (11744905_x_at) / Fold change /veh ORM1 (11744905_x_at) / RFU CCDC152 (11743942_at) / Fold change /veh CCDC152 (11743942_at) / RFU ECM1 (11717891_a_at) / Fold change /veh ECM1 (11717891_a_at) / RFU IL23R (11748794_a_at) / Fold change /veh IL23R (11748794_a_at) / RFU TNFAIP8L3 (11732012_x_at) / Fold change /veh TNFAIP8L3 (11732012_x_at) / RFU MBOAT4 (11741988_at) / Fold change /veh MBOAT4 (11741988_at) / RFU 11764193_at / Fold change /veh 11764193_at / RFU TMEM53 (11763286_at) / Fold change /veh TMEM53 (11763286_at) / RFU MAGEB2 (11727129_at) / Fold change /veh MAGEB2 (11727129_at) / RFU TMEM200A (11744735_a_at) / Fold change /veh TMEM200A (11744735_a_at) / RFU CCDC152 (11751479_a_at) / Fold change /veh CCDC152 (11751479_a_at) / RFU FAM211A (11726209_a_at) / Fold change /veh FAM211A (11726209_a_at) / RFU RGS16 (11746705_a_at) / Fold change /veh RGS16 (11746705_a_at) / RFU VCAN (11755009_s_at) / Fold change /veh VCAN (11755009_s_at) / RFU RHOB (11743442_s_at) / Fold change /veh RHOB (11743442_s_at) / RFU RGS16 (11720943_a_at) / Fold change /veh RGS16 (11720943_a_at) / RFU RGS16 (11720944_at) / Fold change /veh RGS16 (11720944_at) / RFU, VPS4B / Fold change vs veh, VPS4B / RFU, CREB1 / Fold change vs veh, CREB1 / RFU, DNAJC13 / Fold change vs veh, DNAJC13 / RFU, GNAQ / Fold change vs veh, GNAQ / RFU, CDK5R1 / Fold change vs veh, CDK5R1 / RFU, ZRANB3 / Fold change vs veh, ZRANB3 / RFU, CUL4A / Fold change vs veh, CUL4A / RFU, CCNY / Fold change vs veh, CCNY / RFU, UFL1 / Fold change vs veh, UFL1 / RFU, COG3 / Fold change vs veh, COG3 / RFU, DIAPH2 / Fold change vs veh, DIAPH2 / RFU, SKA2 / Fold change vs veh, SKA2 / RFU, AFF3 / Fold change vs veh, AFF3 / RFU, LMF1 / Fold change vs veh, LMF1 / RFU, IPO11 / Fold change vs veh, IPO11 / RFU, DFFB / Fold change vs veh, DFFB / RFU, FOXP1 / Fold change vs veh, FOXP1 / RFU, CARD8 / Fold change vs veh, CARD8 / RFU, STRN3 / Fold change vs veh, STRN3 / RFU, ADK / Fold change vs veh, ADK / RFU, RASSF2 / Fold change vs veh, RASSF2 / RFU, WIPF1 / Fold change vs veh, WIPF1 / RFU, LARP1B / Fold change vs veh, LARP1B / RFU, RASA1 / Fold change vs veh, RASA1 / RFU, RB1 / Fold change vs veh, RB1 / RFU, PPFIA1 / Fold change vs veh, PPFIA1 / RFU, MAT2A / Fold change vs veh, MAT2A / RFU, CCT5 / Fold change vs veh, CCT5 / RFU, WDR92 / Fold change vs veh, WDR92 / RFU, CUX1 / Fold change vs veh, CUX1 / RFU, TTC7A / Fold change vs veh, TTC7A / RFU, TMEM135 / Fold change vs veh, TMEM135 / RFU, DEPTOR / Fold change vs veh, DEPTOR / RFU, CPM / Fold change vs veh, CPM / RFU, DNAJB6 / Fold change vs veh, DNAJB6 / RFU, CACNA2D3 / Fold change vs veh, CACNA2D3 / RFU, DTX4 / Fold change vs veh, DTX4 / RFU, TFCP2 / Fold change vs veh, TFCP2 / RFU, GMCL1 /// GMCL1P1 / Fold change vs veh, GMCL1 /// GMCL1P1 / RFU, AEBP2 / Fold change vs veh, AEBP2 / RFU, SNHG1 /// SNORD22 /// SNORD25 /// SNORD26 /// SNORD27 /// SNORD28 /// SNORD29 /// SNORD31 / Fold change vs veh, SNHG1 /// SNORD22 /// SNORD25 /// SNORD26 /// SNORD27 /// SNORD28 /// SNORD29 /// SNORD31 / Fold change (Aza/veh), C12orf56 (ProbeSet 11735607_a_at) / Fold change (ACY-1035/veh), C12orf56 (ProbeSet 11735607_a_at) / Fold change (Aza/veh), FGFR1OP (ProbeSet 11751329_s_at) / Fold change (ACY-1035/veh), FGFR1OP (ProbeSet 11751329_s_at) / Fold change (Aza/veh), VPS36 (ProbeSet 11739960_a_at) / Fold change (ACY-1035/veh), VPS36 (ProbeSet 11739960_a_at) / RFU SYPL1 (11715823_x_at) / Fold change /veh SYPL1 (11715823_x_at) / RFU IGFBP7 (11715501_s_at) / Fold change /veh IGFBP7 (11715501_s_at) / RFU REEP3 (11722064_at) / Fold change /veh REEP3 (11722064_at) / RFU IGLL1 (11728026_x_at) / Fold change /veh IGLL1 (11728026_x_at): dose or concentration left out as unconfirmed
Details: ProbeSet 11739263_x_at; LIST D

Nc1ncn([C@@H]2O[C@H](CO)[C@@H](O)[C@H]2O)c(=O)n1 [azacitidine]
RFU, VPS4B: 59.01 RFU
